Experiments:
[1] = refractive index (Na D-line) (dimensionless); details: 101.33 kPa, Liquid
[2] = for mass density / viscosity: 101.33 kPa, Liquid; for viscosity: Surface Light Scattering; for surface tension liquid-gas: Drop weight

CCn1cc[n+](C)c1.CO[PH](=O)[O-] [1-ethyl-3-methylimidazolium methyl phosphonate]
Details	mass density [kg/m3]	refractive index	surface tension liquid-gas [mN/m]	viscosity [mPa·s]
[1], 283.15 K	–	1.4969	–	–
[1], 293.15 K	–	1.4935	–	–
[1], 303.15 K	–	1.4928	–	–
[1], 313.15 K	–	1.4902	–	–
[2], 273.15 K	1208.75	–	–	563.9
[2], 278.15 K	1205.29	–	–	379.6
[2], 283.15 K	1201.82	–	–	266.6
[2], 288.15 K	1198.42	–	–	193.2
[2], 293.15 K	1195.12	–	45.49	143.1
[2], 298.15 K	1191.82	–	–	–
[2], 303.15 K	1188.5	–	–	83.4
[2], 308.15 K	1185.21	–	–	–
[2], 313.15 K	1181.92	–	–	53.9
[2], 318.15 K	1178.65	–	–	–
[2], 323.15 K	1175.39	–	–	36.4
[2], 328.15 K	1172.14	–	–	–
[2], 333.15 K	1168.89	–	–	27.4
[2], 338.15 K	1165.66	–	–	–
[2], 343.15 K	1162.45	–	–	–
[2], 348.15 K	1159.25	–	–	–
[2], 353.15 K	1156.06	–	–	–
[2], 358.15 K	1152.9	–	–	–
[2], 363.15 K	1149.73	–	–	–

CCCCCCCCOS(=O)(=O)[O-].CCn1cc[n+](C)c1 [1-ethyl-3-methylimidazolium octyl sulfate]
Details	mass density [kg/m3]	refractive index	surface tension liquid-gas [mN/m]	viscosity [mPa·s]
[1], 283.15 K	–	1.4786	–	–
[1], 293.15 K	–	1.4766	–	–
[1], 303.15 K	–	1.4737	–	–
[1], 313.15 K	–	1.4712	–	–
[2], 273.15 K	1111.56	–	–	3894.8
[2], 278.15 K	1108	–	–	2429.9
[2], 283.15 K	1104.34	–	–	1578.5
[2], 288.15 K	1100.82	–	–	1045.1
[2], 293.15 K	1097.48	–	31	717.8
[2], 298.15 K	1094.15	–	–	–
[2], 303.15 K	1090.83	–	–	368.1
[2], 308.15 K	1087.52	–	–	–
[2], 313.15 K	1084.2	–	–	208.1
[2], 318.15 K	1080.97	–	–	–
[2], 323.15 K	–	–	–	126.2
[2], 328.15 K	1074.55	–	–	–
[2], 333.15 K	1071.34	–	–	80.9
[2], 338.15 K	1068.14	–	–	–
[2], 343.15 K	1064.94	–	–	–
[2], 348.15 K	1061.76	–	–	–
[2], 353.15 K	1058.59	–	–	–
[2], 358.15 K	1055.42	–	–	–
[2], 363.15 K	1052.26	–	–	–

CCCCn1cc[n+](CCCC)c1.O=S(=O)([N-]S(=O)(=O)C(F)(F)F)C(F)(F)F
Details	mass density [kg/m3]	refractive index	surface tension liquid-gas [mN/m]	viscosity [mPa·s]
[1], 283.15 K	–	1.4376	–	–
[1], 293.15 K	–	1.4347	–	–
[1], 303.15 K	–	1.4324	–	–
[1], 313.15 K	–	1.4298	–	–
[2], 273.15 K	1362.73	–	–	277.9
[2], 278.15 K	1358.06	–	–	203
[2], 283.15 K	1353.51	–	–	152.1
[2], 288.15 K	1349.01	–	–	115.3
[2], 293.15 K	1344.5	–	29.55	89.5
[2], 298.15 K	1340.01	–	–	–
[2], 303.15 K	1335.51	–	–	57.2
[2], 308.15 K	1331.02	–	–	–
[2], 313.15 K	1326.56	–	–	37.9
[2], 318.15 K	1322.09	–	–	–
[2], 323.15 K	–	–	–	26.5
[2], 328.15 K	1313.2	–	–	–
[2], 333.15 K	1308.77	–	–	19.2
[2], 338.15 K	1304.36	–	–	–
[2], 343.15 K	1299.99	–	–	–
[2], 348.15 K	1295.57	–	–	–
[2], 353.15 K	1291.2	–	–	–
[2], 358.15 K	1286.84	–	–	–
[2], 363.15 K	1282.5	–	–	–

CCn1cc[n+](C)c1.CS(=O)(=O)[O-] [1-ethyl-3-methylimidazolium methanesulfonate]
Details	mass density [kg/m3]	refractive index	surface tension liquid-gas [mN/m]	viscosity [mPa·s]
[1], 283.15 K	–	1.5018	–	–
[1], 293.15 K	–	1.4996	–	–
[1], 303.15 K	–	1.4977	–	–
[1], 313.15 K	–	1.4949	–	–
[2], 273.15 K	1259.14	–	–	1112.6
[2], 278.15 K	1255.59	–	–	676.3
[2], 283.15 K	1252.04	–	–	435.5
[2], 288.15 K	1248.49	–	–	290.1
[2], 293.15 K	1244.96	–	50.72	205.2
[2], 298.15 K	1241.52	–	–	–
[2], 303.15 K	1238.15	–	–	112.9
[2], 308.15 K	1234.77	–	–	–
[2], 313.15 K	1231.4	–	–	69
[2], 318.15 K	1228.03	–	–	–
[2], 323.15 K	–	–	–	44.6
[2], 328.15 K	1221.33	–	–	–
[2], 333.15 K	1218	–	–	31.7
[2], 338.15 K	1214.69	–	–	–
[2], 343.15 K	1211.38	–	–	–
[2], 348.15 K	1208.09	–	–	–
[2], 353.15 K	1204.82	–	–	–
[2], 358.15 K	1201.56	–	–	–
[2], 363.15 K	1198.31	–	–	–

Reference: the NIST ThermoML archive (doi:10.1021/je900134z)
